Measurements reported in US10166271B2, “Methods for promoting hair growth” (THE REGENTS OF THE UNIVERSITY OF CALIFORNIA, priority 2006, dated 2019).
Several values for one entry are separate records, joined by “and”; a condition that tells them apart may be missing. Equal entries are not always repeated.

Experiments:
young CRF-OE mice = details: mouse, in vivo
Protocol: Each subcutaneous injection is given in a single puncture located along or about the midline of the back. Age-matched CRF-OE mice similarly injected with 0.1 ml vehicle alone are used as negative controls. Astressin B fragments are as described in Example 8. Alternatively, topical astressin B can be applied to the mouse's back, for example 0.05 mg, 0.5 mg, 5 mg, 50 mg, or 500 mg of an astressin B fragment once daily for at least five consecutive days
Hair growth (or hair loss) is assessed using the hair growth scale described in Example 1. The general conditions of treated and control mice, such as weight, back skin thickness, hair luster, skin wounds and indurations, are noted.

CRF-OE mice [1] = assay: Repeat sc experiment in female CRF-OE mice (4.5 months old): skin pigment and hair growth scores; assay type: in vivo; design: key to Skin pigmentation (Pg) score: 0 = bright pink skin, 10 = black pigmentation of entire region; key to Ventral Abdomen Hair Growth Score (VAb) / Back Hair Growth Score (BK): 0 = no change in hair, 10 = full hair growth in test area; details: sc 5 μg/mouse x 5 days
Protocol: (§1) Hair growth in CRF-OE mice was assessed using the hair growth scale developed by Vegesna et al. […], 2002) modified to account for phenotypic differences between CRF-OE mice. Scores were made visually as well as using photographs of each mouse at a weekly interval. The degree of alopecia varied between individual CRF-OE mice; thus, the percent difference between the amount of hair present in the test area (described below) before and 4 weeks after treatment was converted to a score of 0-10. A zero score corresponded to a no change in the amount of hair in the test area and a score of 10 corresponded to full hair growth in the entire test area. The scale for monitoring hair growth in CRF-OE mice is more particularly described in Table 2.
(§2) Pigmentation of the skin (also referred to as skin color) in the test region was also measured because, in C57BL/6 mice, the skin darkens at the onset of hair growth. A pigmentation score from 0-10 was given to each mouse with a score of 0 corresponding to bright pink skin color/pigment in the entire test region, a score of 1-5 corresponding to increasing intensity of a pale greyish color/pigment of skin in the test region, a score of 6-9 corresponding to increasing but non-confluent darker color/pigment of skin in the test region, and a score of 10 corresponding to black pigmentation of the entire test region. Pigmentation was measured one week after the fifth and final injection because changes (if any) in pigmentation are substantially complete by that time.
Experiments were repeated in female CRF-OE mice (4.5 months old) to confirm the results. Mice were injected with astressin B (5 μg/mouse, 10 mice) or saline (5 mice) for 5 days. Skin pigment and hair growth scores were given as described before. Five astressin B-treated and five saline injected mice were sacrificed for skin tissue collection at seven days post last injection. Additional mice (5) injected with astressin B were sacrificed on day 14. Five littermate wild type (WT) mice were used as normal control. Adrenal gland and abdominal fat weights were also checked at sacrifice of each mouse.
(§3) CRF-OE mice (approximately 4 months old) with fully developed alopecia on their backs were injected intraperitoneally (ip) with equal volumes (0.1 ml) of either saline or astressin B (5 μg/mouse/day) for 5 consecutive days. Skin pigment score and hair growth (on the back) score were determined as described in Example 1. In addition, because adult CRF-OE mice also lose ventral abdomen hair, a ventral abdomen (Vab) hair growth score was determined. The area considered for scoring ventral abdomen hair growth was delineated, in the front (anteriorly), by a horizontal line across the tip of the xifoid process (distal sternum), in the rear (posteriorly), by a horizontal line joining the back of the thighs along the anus, and, laterally, by a straight line along the lateral side of the ventral abdomen on left and right sides.

CRF-OE mice [2] = assay: Hair growth and skin pigmentation after ip injection in adult alopecic CRF-OE mice (Example 2); assay type: in vivo; design: key to Back Hair Growth Score (BK) / Ventral Abdomen Hair Growth Score (VAb): hair growth score 0-10: 0 = no change in hair, 10 = full hair growth; key to Skin pigmentation (Pg) score: pigment score 0-10: 0 = bright pink skin, 10 = fully black; details: for Back Hair Growth Score (BK) / Skin pigmentation (Pg) score / Ventral Abdomen Hair Growth Score (VAb): adult male CRF-OE mice, individual mice and Ave.
Protocol: as §1, §2, §3

[3] = Before (Week 0), individual mice and Ave., listed as AB
[4] = Before (Week 0), individual mice and Ave., listed as AB, mean
[5] = Week 1, individual mice and Ave., listed as AB
[6] = Week 1, individual mice and Ave., listed as AB, mean
[7] = ip 5 μg/mouse/day x 5 days, CRF-OE mice
[8] = ip 5 μg/mouse/day x 5 days, Before (Week 0), listed as AB
[9] = ip 5 μg/mouse/day x 5 days, Before (Week 0), listed as AB, mean
[10] = ip 5 μg/mouse/day x 5 days, Week 1, listed as AB
[11] = ip 5 μg/mouse/day x 5 days, Week 1, listed as AB, mean
[12] = ip 5 μg/mouse/day x 5 days, Week 8, listed as AB
[13] = ip 5 μg/mouse/day x 5 days, Week 8, listed as AB, mean

## (cyclo 30-33)[DPhe12, Nle21,38, Cml27,40, Glu30, Lys33]Ac-h/rCRF9-41 [Astressin B]
Young CRF-OE mice
  General conditions of treated mice: well and substantially the same
CRF-OE mice [1]; Before (Week 0), individual mice and Ave.
  Skin pigmentation (Pg) score: 0
CRF-OE mice [1]; [3]
  Back Hair Growth Score (BK): 0.5 (4×) and 1 (2×) and 0 (4×)
  Ventral Abdomen Hair Growth Score (VAb): 0.5 (4×) and 0.25 (6×)
CRF-OE mice [1]; [4]
  Back Hair Growth Score (BK): 0.7 and 0.1
  Ventral Abdomen Hair Growth Score (VAb): 0.35
CRF-OE mice [1]; Before (Week 0), individual mice and Ave., mean
  Skin pigmentation (Pg) score: 0
CRF-OE mice [1]; [5]
  Back Hair Growth Score (BK): 10 (4×) and 9.5 (3×) and 7 and 9 and 8.5
  Skin pigmentation (Pg) score: 10 (4×) and 9.5 (3×) and 7 and 9 and 8.5
  Ventral Abdomen Hair Growth Score (VAb): 0.5 (2×) and 0.25 (7×) and 0.75
CRF-OE mice [1]; [6]
  Back Hair Growth Score (BK): 9.5 and 9.1
  Skin pigmentation (Pg) score: 9.5 and 9.1
  Ventral Abdomen Hair Growth Score (VAb): 0.35
CRF-OE mice [1]; Week 2, 14 days follow-up group, individual mice and Ave.
  Ventral Abdomen Hair Growth Score (VAb): 0.5
CRF-OE mice [1]; Week 2, 14 days follow-up group, individual mice and Ave., listed as AB
  Back Hair Growth Score (BK): 5 and 9.5 and 8 (2×) and 10
CRF-OE mice [1]; Week 2, 14 days follow-up group, individual mice and Ave., listed as AB, mean
  Back Hair Growth Score (BK): 8.1
CRF-OE mice [1]; Week 2, 14 days follow-up group, individual mice and Ave., mean
  Ventral Abdomen Hair Growth Score (VAb): 0.5
CRF-OE mice [2]; [7]
  Onset of dark skin pigment after the final injection: ≤ 3 days
  Time of darkest skin color / maximal pigment response after the final injection: 7 to 10 days
CRF-OE mice [2]; ip 5 μg/mouse/day x 5 days, CRF-OE mice, listed as astressin B
  Re-grown hair maintained / retained after the final ip injection: ≥ 8 weeks
CRF-OE mice [2]; ip 5 μg/mouse/day x 5 days, CRF-OE mice, listed as astressin-B
  Re-grown hair maintained / retained after the final ip injection: 8 weeks
CRF-OE mice [2]; [8]
  Back Hair Growth Score (BK): 2 and 1 (3×)
  Skin pigmentation (Pg) score: 0.0
  Ventral Abdomen Hair Growth Score (VAb): 5 (3×) and 2.5
CRF-OE mice [2]; [9]
  Back Hair Growth Score (BK): 1.25
  Skin pigmentation (Pg) score: 0
  Ventral Abdomen Hair Growth Score (VAb): 4.4
CRF-OE mice [2]; ip 5 μg/mouse/day x 5 days, Week 1
  Skin pigmentation (Pg) score: 10
CRF-OE mice [2]; [10]
  Back Hair Growth Score (BK): 9.5 and 10 and 9 (2×)
  Ventral Abdomen Hair Growth Score (VAb): 10 (2×) and 8 (2×)
CRF-OE mice [2]; [11]
  Back Hair Growth Score (BK): 9.4
  Ventral Abdomen Hair Growth Score (VAb): 9
CRF-OE mice [2]; ip 5 μg/mouse/day x 5 days, Week 4
  Ventral Abdomen Hair Growth Score (VAb): 10
CRF-OE mice [2]; ip 5 μg/mouse/day x 5 days, Week 4, listed as AB
  Back Hair Growth Score (BK): 10 (3×) and 9.5
CRF-OE mice [2]; ip 5 μg/mouse/day x 5 days, Week 4, listed as AB, mean
  Back Hair Growth Score (BK): 9.9
CRF-OE mice [2]; ip 5 μg/mouse/day x 5 days, Week 4, mean
  Ventral Abdomen Hair Growth Score (VAb): 10
CRF-OE mice [2]; [12]
  Back Hair Growth Score (BK): 10 and 9.5 and 8.5 and 8
  Ventral Abdomen Hair Growth Score (VAb): 10 (2×) and 8 (2×)
CRF-OE mice [2]; [13]
  Back Hair Growth Score (BK): 9
  Ventral Abdomen Hair Growth Score (VAb): 9
CRF-OE mice [2]; ip 5 μg/mouse/day x 5 days, at 2 weeks, four-month old male CRF-OE mice
  Hair coverage: 95-100%
CRF-OE mice [2]; ip 5 μg/mouse/day x 5 days, four-month old male CRF-OE mice
  Re-grown hair largely maintained after the last ip injection: up to 16 weeks
CRF-OE mice [2]; ip, four and seven weeks after the final injection, all mice
  Hair growth score (fully grown hair): 9-10
CRF-OE mice [2]; ip, one week after the final injection, fraction of mice
  Mice with dark skin: 4/4
